Test results from patent US6737383B1, “Herbicidal oxadiazolidines” (priority 1999, dated 2004).

Columns and labels:
[1] = test system: bedstraw; assay: Test B pre/postemergence bedstraw; type: in vivo, Galium aparine; settings: Preemergence; for Bedstraw plant response rating: scale of 0 to 10 where 0 is no effect and 10 is complete control
How it was run: (§1)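 Response is a visual 0-to-10 score relative to untreated plants, where 0 means no effect and 10 means complete control, taken twelve to sixteen days after application. Treatments went onto soil at planting and onto foliage of 1- to 4-leaf plants, using a surfactant-containing non-phytotoxic solvent.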

[2] = test system: surinam grass; assay: Test B pre/postemergence surinam grass; type: in vivo, Brachiaria decumbens; settings: for B. signalgrass plant response rating: scale of 0 to 10 where 0 is no effect and 10 is complete control
How it was run: as §1

[3] = test system: cocklebur; assay: Test B pre/postemergence cocklebur; type: in vivo, Xanthium strumarium; settings: for Cocklebur plant response rating: scale of 0 to 10 where 0 is no effect and 10 is complete control
How it was run: as §1

[4] = test system: corn; assay: Test B pre/postemergence corn; type: in vivo, Zea mays; settings: for Corn plant response rating: scale of 0 to 10 where 0 is no effect and 10 is complete control
How it was run: as §1

[5] = test system: giant foxtail; assay: Test B pre/postemergence giant foxtail; type: in vivo, Setaria faberii; settings: for Giant foxtail plant response rating: scale of 0 to 10 where 0 is no effect and 10 is complete control
How it was run: as §1

[6] = test system: pigweed; assay: Test B pre/postemergence pigweed; type: in vivo, Amaranthus retroflexus; settings: for Redroot pigweed plant response rating: scale of 0 to 10 where 0 is no effect and 10 is complete control
How it was run: as §1

[7] = test system: rape; assay: Test B pre/postemergence rape; type: in vivo, Brassica napus; settings: for Rape plant response rating: scale of 0 to 10 where 0 is no effect and 10 is complete control
How it was run: as §1

[8] = test system: soybean; assay: Test B pre/postemergence soybean; type: in vivo, Glycine max; settings: for Soybean plant response rating: scale of 0 to 10 where 0 is no effect and 10 is complete control
How it was run: as §1

[9] = test system: sugar beet; assay: Test B pre/postemergence sugar beet; type: in vivo, Beta vulgaris; settings: for Sugarbeets plant response rating: scale of 0 to 10 where 0 is no effect and 10 is complete control
How it was run: as §1

[10] = test system: velvetleaf; assay: Test B pre/postemergence velvetleaf; type: in vivo, Abutilon theophrasti; settings: for Velvetleaf plant response rating: scale of 0 to 10 where 0 is no effect and 10 is complete control
How it was run: as §1

[11] = test system: wheat; assay: Test B pre/postemergence wheat; type: in vivo, Triticum aestivum; settings: for Wheat plant response rating: scale of 0 to 10 where 0 is no effect and 10 is complete control
How it was run: as §1

[12] = test system: wild oat; assay: Test B pre/postemergence wild oat; type: in vivo, Avena fatua; settings: for Wild oats plant response rating: scale of 0 to 10 where 0 is no effect and 10 is complete control
How it was run: as §1

[13] = test system: purple nutsedge; assay: Test B pre/postemergence purple nutsedge; type: in vivo, Cyperus rotundus; settings: for Nutsedge plant response rating: scale of 0 to 10 where 0 is no effect and 10 is complete control
How it was run: as §1

[14] = test system: rice; assay: Test B flood test rice; type: in vivo, Oryza sativa; settings: Pre-emergence
How it was run: (§2)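 Each value is a visual injury score relative to controls, with 10 meaning complete control and 0 no effect. Evaluation took place twelve to sixteen days after the 2-leaf-stage plants were treated and kept in the greenhouse.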

[15] = test system: smallflower flatsedge; assay: Test B flood test smallflower flatsedge; type: in vivo, Cyperus difformis; settings: Pre-emergence
How it was run: as §2

[16] = test system: duck salad; assay: Test B flood test duck salad; type: in vivo, Heteranthera limosa; settings: Pre-emergence
How it was run: as §2

[17] = Postemergence, Rate 125 g/ha, scale 0 to 10, 0 is no effect, 10 is complete control
[18] = Postemergence, Rate 250 g/ha, scale 0 to 10, 0 is no effect, 10 is complete control
[19] = Preemergence, Rate 62 g/ha, scale 0 to 10 (0 no effect, 10 complete control)
[20] = Rate 500 g/ha, Postemergence, scale 0 to 10, 0 no effect, 10 complete control
[21] = Rate 62 g/ha, flood test species, visual evaluation after twelve to sixteen days
[22] = Rate 125 g/ha, flood test species, scale 0 to 10 where 0 is no effect and 10 is complete control
[23] = Rate 250 g/ha, flood-test species, scale 0 to 10, 0 is no effect, 10 is complete control
[24] = Rate 500 g/ha, flood test species, scale 0 to 10 (0 no effect, 10 complete control)

CC(C)N(C(=O)n1oc(=O)n(C(C)CCl)c1=O)c1ccc(F)cc1 (stereo not drawn) [Compound 367]
10: Plant response rating, Bedstraw ([1]; Rate 62 g/ha, scale 0 to 10 (0 no effect, 10 complete control)) | Bedstraw plant response rating (0 to 10 scale) ([1]; Rate 125 g/ha) | Bedstraw plant response rating ([1]; Rate 250 g/ha) | Bedstraw plant response rating ([1]; Rate 500 g/ha) | Plant response rating, Giant foxtail [5, 19] | Giant foxtail plant response rating (0 to 10 scale) ([5]; Preemergence, Rate 125 g/ha) | Giant foxtail plant response rating ([5]; Preemergence, Rate 250 g/ha) | Giant foxtail plant response rating ([5]; Preemergence, Rate 500 g/ha) | Plant response rating, Redroot pigweed [6, 19] | Redroot pigweed plant response rating (0 to 10 scale) ([6]; Preemergence, Rate 125 g/ha) | Redroot pigweed plant response rating ([6]; Preemergence, Rate 250 g/ha) | Redroot pigweed plant response rating ([6]; Preemergence, Rate 500 g/ha) | Rape plant response rating ([7]; Preemergence, Rate 500 g/ha)
0: Plant response rating, B. signalgrass [2, 17] | Plant response rating, B. signalgrass [2, 18] | Plant response rating, B. signalgrass [2, 19] | B. signalgrass plant response rating (0 to 10 scale, 0 is no effect, 10 is complete control) ([2]; Preemergence, Rate 125 g/ha) | B. signalgrass plant response rating ([2]; Rate 62 g/ha, Postemergence) | Plant response rating, Cocklebur [3, 17] | Plant response rating, Cocklebur [3, 18] | Plant response rating, Cocklebur [3, 19] | Cocklebur plant response rating (0 to 10 scale) ([3]; Preemergence, Rate 125 g/ha) | Cocklebur plant response rating ([3]; Preemergence, Rate 250 g/ha) | Cocklebur plant response rating ([3]; Rate 62 g/ha, Postemergence) | Plant response rating, Corn [4, 17] | Plant response rating, Corn [4, 18] | Plant response rating, Corn [4, 19] | Corn plant response rating (0 to 10 scale) ([4]; Preemergence, Rate 125 g/ha) | Corn plant response rating ([4]; Rate 62 g/ha, Postemergence) | Plant response rating, Corn [4, 20] | Giant foxtail plant response rating ([5]; Rate 62 g/ha, Postemergence) | Plant response rating, Redroot pigweed [6, 17] | Plant response rating, Redroot pigweed [6, 18] | Redroot pigweed plant response rating ([6]; Rate 62 g/ha, Postemergence) | Plant response rating, Rape [7, 17] | Plant response rating, Rape [7, 18] | Plant response rating, Rape [7, 19] | Rape plant response rating ([7]; Rate 62 g/ha, Postemergence) | Plant response rating, Soybean [8, 19] | Soybean plant response rating (0 to 10 scale) ([8]; Preemergence, Rate 125 g/ha) | Soybean plant response rating ([8]; Preemergence, Rate 250 g/ha) | Soybean plant response rating ([8]; Preemergence, Rate 500 g/ha) | Soybean plant response rating ([8]; Rate 62 g/ha, Postemergence) | Plant response rating, Sugarbeets [9, 17] | Plant response rating, Sugarbeets [9, 18] | Sugarbeets plant response rating ([9]; Rate 62 g/ha, Postemergence) | Velvetleaf plant response rating ([10]; Rate 62 g/ha, Postemergence) | Plant response rating, Wheat [11, 17] | Plant response rating, Wheat [11, 18] | Plant response rating, Wheat [11, 19] | Wheat plant response rating (0 to 10 scale) ([11]; Preemergence, Rate 125 g/ha) | Wheat plant response rating ([11]; Preemergence, Rate 250 g/ha) | Wheat plant response rating ([11]; Preemergence, Rate 500 g/ha) | Wheat plant response rating ([11]; Rate 62 g/ha, Postemergence) | Plant response rating, Wild oats [12, 17] | Plant response rating, Wild oats [12, 18] | Plant response rating, Wild oats [12, 19] | Wild oats plant response rating ([12]; Rate 62 g/ha, Postemergence) | Plant response rating, Nutsedge [13, 17] | Plant response rating, Nutsedge [13, 18] | Plant response rating, Nutsedge [13, 19] | Nutsedge plant response rating (0 to 10 scale) ([13]; Preemergence, Rate 125 g/ha) | Nutsedge plant response rating ([13]; Preemergence, Rate 250 g/ha) | Nutsedge plant response rating ([13]; Preemergence, Rate 500 g/ha) | Nutsedge plant response rating ([13]; Rate 62 g/ha, Postemergence) | Plant response rating, Rice (0 to 10 scale, 0 is no effect, 10 is complete control) [14, 21] | Rice plant response rating [14, 22] | Rice plant response rating [14, 23] | Rice plant response rating [14, 24] | Plant response rating, S. Flatsedge (0 to 10 scale, 0 is no effect, 10 is complete control) [15, 21] | S. Flatsedge plant response rating [15, 22] | S. Flatsedge plant response rating [15, 23] | S. Flatsedge plant response rating [15, 24] | Plant response rating, Ducksalad (0 to 10 scale, 0 is no effect, 10 is complete control) [16, 21] | Ducksalad plant response rating [16, 22] | Ducksalad plant response rating [16, 23] | Ducksalad plant response rating [16, 24]
2: Plant response rating, Cocklebur [3, 20] | Corn plant response rating ([4]; Preemergence, Rate 250 g/ha) | Plant response rating, Soybean [8, 20] | Plant response rating, Sugarbeets [9, 19] | Plant response rating, Velvetleaf [10, 17] | Plant response rating, Velvetleaf [10, 18]
4: B. signalgrass plant response rating ([2]; Preemergence, Rate 250 g/ha) | Plant response rating, B. signalgrass [2, 20] | Plant response rating, Rape [7, 20] | Sugarbeets plant response rating (0 to 10 scale) ([9]; Preemergence, Rate 125 g/ha)
8: Plant response rating, Giant foxtail [5, 18] | Plant response rating, Giant foxtail [5, 20] | Plant response rating, Wild oats [12, 20]
9: Sugarbeets plant response rating ([9]; Preemergence, Rate 500 g/ha)
6: Velvetleaf plant response rating ([10]; Preemergence, Rate 500 g/ha) | Plant response rating, Wheat [11, 20]
3: Plant response rating, Giant foxtail [5, 17] | Rape plant response rating (0 to 10 scale) ([7]; Preemergence, Rate 125 g/ha) | Plant response rating, Velvetleaf [10, 19] | Velvetleaf plant response rating (0 to 10 scale) ([10]; Preemergence, Rate 125 g/ha) | Plant response rating, Velvetleaf [10, 20] | Wild oats plant response rating (0 to 10 scale) ([12]; Preemergence, Rate 125 g/ha) | Wild oats plant response rating ([12]; Preemergence, Rate 250 g/ha) | Plant response rating, Nutsedge [13, 20]
1: Plant response rating, Soybean [8, 17] | Plant response rating, Soybean [8, 18]
7: Plant response rating, Redroot pigweed [6, 20] | Sugarbeets plant response rating ([9]; Preemergence, Rate 250 g/ha) | Plant response rating, Sugarbeets [9, 20] | Wild oats plant response rating ([12]; Preemergence, Rate 500 g/ha)
5: B. signalgrass plant response rating ([2]; Preemergence, Rate 500 g/ha) | Corn plant response rating ([4]; Preemergence, Rate 500 g/ha) | Rape plant response rating ([7]; Preemergence, Rate 250 g/ha) | Velvetleaf plant response rating ([10]; Preemergence, Rate 250 g/ha)
